Test results reported in the supplement of paper PMC11208160.

Test: recombinant barcode read abundance after kanamycin selection (control-corrected) (log10(CPM+1)); higher = more efficient recombination; sequences stand for … in AGTGCAGAGAAAATCGGCCAGTTTTCTCTGCCTGCAGTCCGCATGCCGT…ATTTATGCAGCGGACTGCCTTTCTCCCAAAGTGATAAACCGGACAGTATCATGGACCGGTTTTCCCGGTAATCCGTATTTGCAAGGTTGGTTTCACT; site = the 11-nt target
Method in brief: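 This pooled E. coli screen matched targets with IS621 bridge RNA target-binding loops. Plating was done in duplicate on chloramphenicol/ampicillin LB agar as a control and on chloramphenicol/ampicillin/kanamycin plus 0.1 mM IPTG. Recombination efficiency reflects barcode counts at recombinant junctions as counts per million, averaged and control-corrected. The figures are log10(CPM+1).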

Sequence	recombinant barcode read abundance (log10)
GGACACCCTTGGGTTCTAACCTGTTGCCTTG [GGACACCCTAG_LTGcore_CT_RTGcore_CA] (site GGACACCCTAG) (LTG core: CT, RTG core: CA)	1.32
CGGTCCCAATGGGTTCTAACCTGTTGCCATT [CGGTCCCCTTG_LTGcore_AA_RTGcore_AA] (site CGGTCCCCTTG) (LTG core: AA, RTG core: AA)	0.0857
TTATAAACTTGGGTTCTAACCTGTTGCCTCG [TTATAAACTAG_LTGcore_CT_RTGcore_CG] (site TTATAAACTAG) (LTG core: CT, RTG core: CG)	0.154
AGGCGGGTTTGGGTTCTAACCTGTTGCGGAG [AGGCGGGCTCC_LTGcore_TT_RTGcore_CT] (site AGGCGGGCTCC) (LTG core: TT, RTG core: CT)	0.475
GAGCCCACCTGGGTTCTAACCTGTTGCCTAG [GAGCCCACTAG_LTGcore_CC_RTGcore_CT] (site GAGCCCACTAG) (LTG core: CC, RTG core: CT)	0.29
AGGCGGTTCTGGGTTCTAACCTGTTGCTTGA [AGGCGGTCTAA_LTGcore_TC_RTGcore_TC] (site AGGCGGTCTAA) (LTG core: TC, RTG core: TC)	0.191
GCGGGACCCTGGGTTCTAACCTGTTGCCTGG [GCGGGACCTAG_LTGcore_CC_RTGcore_CC] (site GCGGGACCTAG) (LTG core: CC, RTG core: CC)	1.52
GGCTCCCTGTGGGTTCTAACCTGTTGCGGCA [GGCTCCCCTCC_LTGcore_TG_RTGcore_TG] (site GGCTCCCCTCC) (LTG core: TG, RTG core: TG)	0.234
AAACACACTTGGGTTCTAACCTGTTGCCTAA [AAACACACTAG_LTGcore_CT_RTGcore_TT] (site AAACACACTAG) (LTG core: CT, RTG core: TT)	1.12
GGGAGCCCTTGGGTTCTAACCTGTTGCTGCC [GGGAGCCCTCA_LTGcore_CT_RTGcore_GG] (site GGGAGCCCTCA) (LTG core: CT, RTG core: GG)	0.0726
CATATTACTTGGGTTCTAACCTGTTGCCTGT [CATATTACTAG_LTGcore_CT_RTGcore_AC] (site CATATTACTAG) (LTG core: CT, RTG core: AC)	0.00796
GGCTCCCCTTGGGTTCTAACCTGTTGCGGCG [GGCTCCCCTCC_LTGcore_CT_RTGcore_CG] (site GGCTCCCCTCC) (LTG core: CT, RTG core: CG)	0.0875
CGCGCCCCTTGGGTTCTAACCTGTTGCGGTG [CGCGCCCCTCC_LTGcore_CT_RTGcore_CA] (site CGCGCCCCTCC) (LTG core: CT, RTG core: CA)	0.382
AGGCGGTCTTGGGTTCTAACCTGTTGCTTTA [AGGCGGTCTAA_LTGcore_CT_RTGcore_TA] (site AGGCGGTCTAA) (LTG core: CT, RTG core: TA)	0.353
CGGTCCCGATGGGTTCTAACCTGTTGCCAAG [CGGTCCCCTTG_LTGcore_GA_RTGcore_CT] (site CGGTCCCCTTG) (LTG core: GA, RTG core: CT)	0.197
CGAGCCCTTTGGGTTCTAACCTGTTGCTGAA [CGAGCCCCTCA_LTGcore_TT_RTGcore_TT] (site CGAGCCCCTCA) (LTG core: TT, RTG core: TT)	0.0246
TTATAAACTTGGGTTCTAACCTGTTGCCTGC [TTATAAACTAG_LTGcore_CT_RTGcore_GC] (site TTATAAACTAG) (LTG core: CT, RTG core: GC)	0.178
AAACACACTTGGGTTCTAACCTGTTGCCTCC [AAACACACTAG_LTGcore_CT_RTGcore_GG] (site AAACACACTAG) (LTG core: CT, RTG core: GG)	1.45
CGAGCCCCATGGGTTCTAACCTGTTGCTGAG [CGAGCCCCTCA_LTGcore_CA_RTGcore_CT] (site CGAGCCCCTCA) (LTG core: CA, RTG core: CT)	1.27
TAGAGGGACTGGGTTCTAACCTGTTGCGGAG [TAGAGGGCTCC_LTGcore_AC_RTGcore_CT] (site TAGAGGGCTCC) (LTG core: AC, RTG core: CT)	0.265
GAGCCCACTTGGGTTCTAACCTGTTGCCTAA [GAGCCCACTAG_LTGcore_CT_RTGcore_TT] (site GAGCCCACTAG) (LTG core: CT, RTG core: TT)	0.912
GAGTCCATATGGGTTCTAACCTGTTGCGTAG [GAGTCCACTAC_LTGcore_TA_RTGcore_CT] (site GAGTCCACTAC) (LTG core: TA, RTG core: CT)	0.0591
TGTATTCCTTGGGTTCTAACCTGTTGCCTCC [TGTATTCCTAG_LTGcore_CT_RTGcore_GG] (site TGTATTCCTAG) (LTG core: CT, RTG core: GG)	0.364

Sequence	recombinant barcode read abundance (log10)
TCTACCCGCTGGGTTCTAACCTGTTGCTGAG [TCTACCCCTCA_LTGcore_GC_RTGcore_CT] (site TCTACCCCTCA) (LTG core: GC, RTG core: CT)	0.045
GAGCCCACTTGGGTTCTAACCTGTTGCCTTT [GAGCCCACTAG_LTGcore_CT_RTGcore_AA] (site GAGCCCACTAG) (LTG core: CT, RTG core: AA)	0.37
CGAGCCCCTTGGGTTCTAACCTGTTGCTGTG [CGAGCCCCTCA_LTGcore_CT_RTGcore_CA] (site CGAGCCCCTCA) (LTG core: CT, RTG core: CA)	0.176
GTCGCCCCTTGGGTTCTAACCTGTTGCTACA [GTCGCCCCTTA_LTGcore_CT_RTGcore_TG] (site GTCGCCCCTTA) (LTG core: CT, RTG core: TG)	0.151
GAGTCCACTTGGGTTCTAACCTGTTGCGTGG [GAGTCCACTAC_LTGcore_CT_RTGcore_CC] (site GAGTCCACTAC) (LTG core: CT, RTG core: CC)	0.0805
TAAGAATAGTGGGTTCTAACCTGTTGCCTAG [TAAGAATCTAG_LTGcore_AG_RTGcore_CT] (site TAAGAATCTAG) (LTG core: AG, RTG core: CT)	0.079
AGGCCTCAGTGGGTTCTAACCTGTTGCCTCT [AGGCCTCCTAG_LTGcore_AG_RTGcore_AG] (site AGGCCTCCTAG) (LTG core: AG, RTG core: AG)	0.182
ATGTCCCCCTGGGTTCTAACCTGTTGCTCGG [ATGTCCCCTGA_LTGcore_CC_RTGcore_CC] (site ATGTCCCCTGA) (LTG core: CC, RTG core: CC)	0.0529
ATGTCCCCGTGGGTTCTAACCTGTTGCTCAG [ATGTCCCCTGA_LTGcore_CG_RTGcore_CT] (site ATGTCCCCTGA) (LTG core: CG, RTG core: CT)	0.0411
GGGCGGATGTGGGTTCTAACCTGTTGCGGAG [GGGCGGACTCC_LTGcore_TG_RTGcore_CT] (site GGGCGGACTCC) (LTG core: TG, RTG core: CT)	0.251
GGGCGTGCTTGGGTTCTAACCTGTTGCCTCT [GGGCGTGCTAG_LTGcore_CT_RTGcore_AG] (site GGGCGTGCTAG) (LTG core: CT, RTG core: AG)	0.831
GAGCCCACATGGGTTCTAACCTGTTGCCTTG [GAGCCCACTAG_LTGcore_CA_RTGcore_CA] (site GAGCCCACTAG) (LTG core: CA, RTG core: CA)	0.49
GTCGCCCCTTGGGTTCTAACCTGTTGCTACT [GTCGCCCCTTA_LTGcore_CT_RTGcore_AG] (site GTCGCCCCTTA) (LTG core: CT, RTG core: AG)	0.19
TAAGAATTCTGGGTTCTAACCTGTTGCCTAG [TAAGAATCTAG_LTGcore_TC_RTGcore_CT] (site TAAGAATCTAG) (LTG core: TC, RTG core: CT)	0.0977
GGTGCCCCATGGGTTCTAACCTGTTGCCGTG [GGTGCCCCTCG_LTGcore_CA_RTGcore_CA] (site GGTGCCCCTCG) (LTG core: CA, RTG core: CA)	0.0735
TAGAGGGTGTGGGTTCTAACCTGTTGCGGCA [TAGAGGGCTCC_LTGcore_TG_RTGcore_TG] (site TAGAGGGCTCC) (LTG core: TG, RTG core: TG)	0.623
ACGGGACGATGGGTTCTAACCTGTTGCAGTC [ACGGGACCTCT_LTGcore_GA_RTGcore_GA] (site ACGGGACCTCT) (LTG core: GA, RTG core: GA)	0.229
AGGCGGTCTTGGGTTCTAACCTGTTGCTTCG [AGGCGGTCTAA_LTGcore_CT_RTGcore_CG] (site AGGCGGTCTAA) (LTG core: CT, RTG core: CG)	0.117
AGGAGGTCTTGGGTTCTAACCTGTTGCCTGT [AGGAGGTCTAG_LTGcore_CT_RTGcore_AC] (site AGGAGGTCTAG) (LTG core: CT, RTG core: AC)	0.126
GAGTCCTGATGGGTTCTAACCTGTTGCCTAG [GAGTCCTCTAG_LTGcore_GA_RTGcore_CT] (site GAGTCCTCTAG) (LTG core: GA, RTG core: CT)	0.62
CGAGCCCCTTGGGTTCTAACCTGTTGCTGCC [CGAGCCCCTCA_LTGcore_CT_RTGcore_GG] (site CGAGCCCCTCA) (LTG core: CT, RTG core: GG)	0.235
AAACACAGCTGGGTTCTAACCTGTTGCCTGC [AAACACACTAG_LTGcore_GC_RTGcore_GC] (site AAACACACTAG) (LTG core: GC, RTG core: GC)	0.0607
